According to patent US10894817B2, “Fatty acid modified urocortin-2 analogs for the treatment of diabetes and chronic kidney disease” (priority 2016, dated 2021):
Several values for one entry are separate records, joined by “and”; a condition that tells them apart may be missing. Identical values can stand only once. Starred links: 1 amine or outer side, 2 acyl side, 3 side chain; linkers in the order of their positions; H or OH if unused. Residues, ends and D or L forms follow the SMILES beside them. Groups on a side chain read outwards from the residue. *: point of attachment. C20 diacid = O=C(O)CCCCCCCCCCCCCCCCCCC(=O)*; γGlu = O=C(O)[C@H](CCC(=O)[*:2])N[*:1]; AEEA = NCCOCCOCC(=O)O

Assay: Pharmacokinetics, single intravenous dose, monkeys
Conditions: for clearance: in vivo, CL
[1] = male Cynomolgus monkeys, single 96.4 nmol/kg i.v., individual animal
[2] = male, cynomolgus monkey, plasma, iv, 96.4 nmol/kg

Method: Plasma concentrations of compounds were determined by LC/MS methods. Each method measured the intact compound; peptide plus linked time extension. […] Two distinct layers were formed upon centrifugation with the compound and the IS located in the supernatant layer. An aliquot of the supernatant (80 μl) was transferred to a Thermo Protein Precipitation Plate with water (150 μl) and formic acid (25 μl) followed by mixing. A final 31% acetonitrile in 10% formic acid sample (10 μl) was loaded onto a Supelco Analytical Discovery BIO Wide Pore C5-3 column (5 cm×1 mm, 3 μm). The column effluent was directed into a Thermo Q-Exactive mass spectrometer for detection and quantitation.
Male Cynomolgus monkeys were administered a single subcutaneous dose or intravenous dose (96.4 nmol/kg) of a compound described herein in 20 mM Tris-HCl Buffer (pH 7) at a volume of 1 mL/kg. Blood was collected from each animal at 2, 6, 24, 48, 72, 96, 168, 240, 336, 408, and 504 hours postdose for pharmacokinetic characterization.

## CC[C@H](C)[C@H](NC(C)=O)C(=O)N[C@H](C(=O)N[C@@H](CC(C)C)C(=O)N[C@@H](CO)C(=O)N[C@@H](CC(C)C)C(=O)N[C@@H](CC(=O)O)C(=O)N[C@H](C(=O)N1CCC[C@H]1C(=O)N[C@H](C(=O)NCC(=O)N[C@@H](CC(C)C)C(=O)N[C@@H](CC(C)C)C(=O)N[C@@H](CCC(N)=O)C(=O)N[C@H](C(=O)N[C@@H](CC(C)C)C(=O)N[C@@H](CC(C)C)C(=O)N[C@@H](CCC(=O)O)C(=O)N[C@@H](CCC(N)=O)C(=O)N[C@@H](CCC(=O)O)C(=O)N[C@@H](CCCCN)C(=O)N[C@@H](CCC(N)=O)C(=O)N[C@@H](CCC(=O)O)C(=O)N[C@@H](CCCCN)C(=O)N[C@@H](CCC(=O)O)C(=O)N[C@@H](CCCCN)C(=O)N[C@@H](CCC(N)=O)C(=O)N[C@@H](CCC(N)=O)C(=O)N[C@@H](C)C(=O)N[C@@H](CCCCNC(=O)COCCOCCNC(=O)COCCOCCNC(=O)CC[C@H](NC(=O)CC[C@H](NC(=O)CCCCCCCCCCCCCCCCCCC(=O)O)C(=O)O)C(=O)O)C(=O)N[C@H](C(=O)N[C@@H](CC(N)=O)C(=O)N[C@@H](C)C(=O)N[C@@H](CCC(N)=O)C(=O)N[C@H](C(=O)N[C@@H](CC(C)C)C(=O)N[C@@H](C)C(=O)N[C@@H](CCC(N)=O)C(=O)N[C@H](C(N)=O)C(C)C)[C@@H](C)CC)[C@@H](C)O)[C@@H](C)CC)[C@@H](C)CC)C(C)C)C(C)C [Example 2] (Ac-IVLSLDVPIGLLQILLEQEKQEKEKQQAK([AEEA-AEEA-γGlu-γGlu-C20 diacid])TNAQILAQV-NH2)
Cynomolgus monkey, iv, 96.4 nmol/kg, male Cynomolgus monkeys, single 96.4 nmol/kg i.v., Mean
  clearance: 7.68 mL/day/kg
Cynomolgus monkey, iv, 96.4 nmol/kg, male Cynomolgus monkeys, single 96.4 nmol/kg i.v., individual animal
  clearance: 6.72 mL/day/kg
[1]
  C0 (estimated plasma concentration at time zero): 3.267 µM and 3.059 µM
  CL: 8.64 mL/day/kg
[2]
  AUC(0-inf): 306 µM·h
  C0: 3.16 µM
